Experimental data from article PMC12471299, “Secondary Metabolites of the Marine Sponge-Derived Fungus Aspergillus subramanianii 1901NT-1.40.2 and Their Antimicrobial and Anticancer Activities” (Marine Drugs, 2025).
Read-outs that look alike come from different tables or passages of the source.

Columns and labels:
Candida albicans KMM 455 [1] = test: Antimicrobial assay, growth inhibition (optical density); type: cell-based
Experimental: (§1) The Gram-positive bacterial Staphylococcus aureus ATCC 21027, Gram-negative bacterial Escherichia coli VKPM (B-7935), and yeast-like fungal Candida albicans KMM 455 strains were fermented on solid medium Mueller Hinton broth with agar (16.0 g/L) in a Petri dish at 37 °C for 24 h. The antimicrobial activity of the compound was tested at concentrations ranging from 100 µM and lower. The effect of the compound on bacterial growth was estimated as described by. Gentamicin and amphotericin B were used as positive controls against S. aureus, E. coli, and C. albicans, and a 1% dimethyl sulfoxide (DMSO) solution in PBS was used as a negative control. The optical density of the bacterial suspension after 18 h was measured at λ = 620 nm. The effect of the compound on biofilm formation for 18 h was tested using MTT reagent (Sigma-Aldrich, St. Louis, MO, USA) in accordance with. The optical density of the obtained solution was measured at λ = 570 nm. A Multiskan FS spectrophotometer (Thermo Scientific Inc., Beverly, MA, USA) was used for both assays. The results were calculated as percentages of the control data and presented as minimal concentrations reduced by 50% of growth or biofilm formation (MIC50).

[2] = system: Escherichia coli VKPM (B-7935); test: as above; type: cell-based
Experimental: as §1

[3] = system: Staphylococcus aureus ATCC 21027; test: as above; type: cell-based; settings: Staphylococcus aureus
Experimental: as §1

Candida albicans KMM 455 [4] = test: Biofilm formation assay (MTT); type: cell-based
Experimental: as §1

[5] = system: Escherichia coli VKPM (B-7935); test: Biofilm formation assay (MTT); type: cell-based
Experimental: as §1

[6] = system: Staphylococcus aureus ATCC 21027; test: Biofilm formation assay (MTT); type: cell-based
Experimental: as §1

[7] = Cell viability assay (MTT); type: cell-based, rat; settings: rat, H9c2 cardiomyocytes, read-out: Cytotoxicity IC50
Source text: (§2) Rat cardiomyocyte H9c2 cells were kindly provided by Prof. Dr. Gunhild von Amsberg from the Martini-Klinik Prostate Cancer Center, University Hospital Hamburg-Eppendorf, Hamburg, Germany. The human HaCaT keratinocyte cell line was kindly provided by Prof. N. Fusenig (Cancer Research Centre, Heidelberg, Germany). Non-cancerous human breast epithelial MCF-10A cells were kindly provided by Dr. Irina Zhitnyak (N. N. Blokhin National Medical Research Center of Oncology, Moscow, Russia). Human breast cancer MCF-7 HTB-22 and MDA-MB-231 cells were obtained from the ATTC (Manassas, VA, USA).
(§3) H9c2 and HaCaT cells were cultured in DMEM with 10% fetal bovine serum and 1% penicillin/streptomycin (BioloT, St. Petersburg, Russia). MCF-7 and MDA-MB-231 cells were cultured in MEM (BioloT, St. Petersburg, Russia) with 10% fetal bovine serum (FBS) and 1% penicillin/streptomycin (BioloT, St. Petersburg, Russia). MCF 10A cells were cultured in DMEM F12 medium (BioloT, St. Petersburg, Russia) supplemented with 20% FBS, 20 ng/mL hrEGF (Sci-Store, Moscow, Russia), and 1% penicillin/streptomycin (BioloT, St. Petersburg, Russia). All cells were cultured at 37 °C in a humidified atmosphere containing 5% CO2.
(§4) H9c2 cells were seeded at a concentration of 3 × 10^3 cells/well. MCF-10A, MCF-7, and MDA-MB-231 cells were seeded at 5 × 10^3 cells/well, and HaCaT cells were seeded at 1 × 10^4 cells/well. The experiments were initiated after 24 h.
(§5) Compounds at concentrations up to 100 µM were added to the wells for 24h or 48 h, and the viability of the cells was measured using an MTT (3-(4,5-dimethylthiazol-2-yl)-2,5-diphenyltetrazolium bromide) assay, which was performed according to the manufacturer’s instructions (Sigma-Aldrich, Munich, Germany). […] DMSO was used as a control. The results are presented as percentages of the control data.

H9c2 cardiomyocytes = test: Cell viability assay (MTT); type: cell-based, rat
Source text: as §2, §3, §4, §5

[8] = Cell viability assay (MTT); type: cell-based, human; settings: human, read-out: Cytotoxicity IC50
Source text: as §2, §3, §4, §5

HaCaT keratinocytes = test: Cell viability assay (MTT); type: cell-based, human
Source text: as §2, §3, §4, §5

[9] = system: MCF-10A breast epithelial cells; test: Cell viability assay (MTT); type: cell-based, human; settings: MCF10A
Source text: as §2, §3, §4, §5

[10] = system: MCF-7 breast cancer cells; test: Cell viability assay (MTT); type: cell-based, human
Source text: as §2, §3, §4, §5

[11] = system: MDA-MB-231 breast cancer cells; test: Cell viability assay (MTT); type: cell-based, human
Source text: as §2, §3, §4, §5

In the case of `COc1c(OC)c(-c2c[nH]c3ccccc23)c(OC)c(OC)c1-c1c[nH]c2ccccc12` [Compound 7, asterriquinol D dimethyl ether], the MIC50 (Candida albicans KMM 455 [1]; Candida albicans, KMM455, 18 h, C. albicans, 18 h) is reported as greater than 100 µM, the “effect on C. albicans growth” value (Candida albicans KMM 455 [1]; at / up to 100 µM) is reported as “did not affect” and the MIC50 ([2]; Escherichia coli, 18 h, E. coli) is reported as greater than 100 µM. The “effect on E. coli growth” value ([2]; at / up to 100 µM) was “did not affect”, the MIC50 ([3]; ATCC21027, 18 h, S. aureus, 18 h) was greater than 100 µM and the inhibition at 100 µM ([3]; ATCC21027, at 100 µM, read-out: inhibition of S. aureus growth) was 42.2 ± 2.07%. For the same molecule, the “Biofilm formation, MIC50” value (Candida albicans KMM 455 [4]; C. albicans, 18 h) was greater than 100 µM, the “effect on C. albicans biofilm formation” value (Candida albicans KMM 455 [4]; at 100 µM) was “did not affect” and the “Biofilm formation, MIC50” value ([5]; E. coli, 18 h) was greater than 100 µM. The “effect on E. coli biofilm formation” value ([5]; at / up to 100 µM) was “did not affect”, the “Biofilm formation, MIC50” value ([6]; S. aureus, 18 h) was greater than 100 µM and the “effect on S. aureus biofilm formation” value ([6]; at / up to 100 µM) was “did not affect”. For the same molecule, the IC50 at 24 h ([7]; H9c2, 24 h) was greater than 100 µM, the IC50 at 48 h ([7]; H9c2, 48 h) was 69.9 ± 2.3 µM and the cell viability (H9c2 cardiomyocytes; H9c2, 24 h, 1.0 µM) was 101.5 ± 1.3 % of control. The cell viability (H9c2 cardiomyocytes; H9c2, 24 h, 10.0 µM) was 76.9 ± 2.8 % of control, the cell viability (H9c2 cardiomyocytes; H9c2, 24 h, 100.0 µM) was 59.0 ± 5.3 % of control and the cell viability (H9c2 cardiomyocytes; H9c2, 48 h, 1.0 µM) was 102.8 ± 7.6 % of control. For the same molecule, the cell viability (H9c2 cardiomyocytes; H9c2, 48 h, 10.0 µM) was 76.3 ± 3.9 % of control, the cell viability (H9c2 cardiomyocytes; H9c2, 48 h, 100.0 µM) was 32.8 ± 1.4 % of control and the IC50 at 24 h ([8]; HaCaT keratinocytes, 24 h) was greater than 100 µM. The IC50 at 48 h ([8]; HaCaT keratinocytes, 48 h) was 80.5 ± 1.8 µM, the IC50 at 24 h ([8]; MCF-7 breast cancer cells, MCF-7, 24 h) was greater than 100 µM and the IC50 at 48 h ([8]; MCF-7 breast cancer cells, MCF-7, 48 h) was 79.1 ± 2.4 µM. For the same molecule, the IC50 at 24 h ([8]; MCF-10A breast epithelial cells, MCF10A, 24 h) was greater than 100 µM, the IC50 at 48 h ([8]; MCF-10A breast epithelial cells, MCF10A, 48 h) was greater than 100 µM and the IC50 at 24 h ([8]; MDA-MB-231 breast cancer cells, MDA-MB-231, 24 h) was greater than 100 µM. For the same molecule, the IC50 at 48 h ([8]; MDA-MB-231 breast cancer cells, MDA-MB-231, 48 h) was 85.1 ± 1.5 µM, the cell viability (HaCaT keratinocytes; 24 h, 1.0 µM) was 100.7 ± 3.8 % of control and the cell viability (HaCaT keratinocytes; 24 h, 10.0 µM) was 85.6 ± 7.6 % of control. The cell viability (HaCaT keratinocytes; 24 h, 100.0 µM) was 64.1 ± 3.2 % of control, the cell viability (HaCaT keratinocytes; 48 h, 1.0 µM) was 94.2 ± 8.7 % of control and the cell viability (HaCaT keratinocytes; 48 h, 10.0 µM) was 78.1 ± 6.4 % of control. For the same molecule, the cell viability (HaCaT keratinocytes; 48 h, 100.0 µM) was 40.1 ± 2.9 % of control, the cell viability ([9]; 24 h, 1.0 µM) was 102.7 ± 5.1 % of control and the cell viability ([9]; 24 h, 10.0 µM) was 100.2 ± 3.8 % of control. For the same molecule, the cell viability ([9]; 24 h, 100.0 µM) was 59.6 ±2.1 % of control, the cell viability ([9]; 48 h, 1.0 µM) was 97.7 ± 1.4 % of control and the cell viability ([9]; 48 h, 10.0 µM) was 93.1 ± 3.6 % of control. For the same molecule, the cell viability ([9]; 48 h, 100.0 µM) was 78.9 ± 5.7 % of control, the cell viability ([10]; MCF-7, 24 h, 1.0 µM) was 99.4 ± 4.4 % of control and the cell viability ([10]; MCF-7, 24 h, 10.0 µM) was 65.4 ± 2.9 % of control. The cell viability ([10]; MCF-7, 24 h, 100.0 µM) was 56.0 ± 4.5 % of control, the cell viability ([10]; MCF-7, 48 h, 1.0 µM) was 91.5 ± 6.3 % of control and the cell viability ([10]; MCF-7, 48 h, 10.0 µM) was 70.0 ± 5.2 % of control. The cell viability ([10]; MCF-7, 48 h, 100.0 µM) was 43.9 ± 3.5 % of control, the cell viability ([11]; MDA-MB-231, 24 h, 1.0 µM) was 102.7 ± 1.6 % of control and the cell viability ([11]; MDA-MB-231, 24 h, 10.0 µM) was 75.9 ± 4.8 % of control. The cell viability ([11]; MDA-MB-231, 24 h, 100.0 µM) was 53.6 ± 4.2 % of control, the cell viability ([11]; MDA-MB-231, 48 h, 1.0 µM) was 99.8 ± 3.7 % of control and the cell viability ([11]; MDA-MB-231, 48 h, 10.0 µM) was 82.9 ± 6.3 % of control. The cell viability ([11]; MDA-MB-231, 48 h, 100.0 µM) was 43.5 ± 2.5 % of control.
